Experimental data as given in the kinase profiling compilation of Christmann-Franck et al. (2016).

Legend:
Experiment in all cases: radiometric filter-binding kinase assay
[1] = tested on: AKT1 (human), P31749 [S473D]
AURKA (human) = AURKA (human) (UniProt O14965)
BRSK2 (human) = BRSK2 (human) (UniProt Q8IWQ3)
CHEK2 (human) = CHEK2 (human) (UniProt O96017)
CaMK1 (human) = CaMK1 (human) (UniProt Q14012)
DYRK1A (human) = DYRK1A (human) (UniProt Q13627)
DYRK2 (human) = DYRK2 (human) (UniProt Q92630)
EPHB2 (human) = EPHB2 (human) (UniProt P29323)
EPHB3 (human) = EPHB3 (human) (UniProt P54753); details: compound 10.0 µM
ERBB4 (human) = ERBB4 (human) (UniProt Q15303)
HIPK2 (human) = HIPK2 (human) (UniProt Q9H2X6)
IKBKE (human) = IKBKE (human) (UniProt Q14164)
MAP2K6 (human) = MAP2K6 (human) (UniProt P52564)
MAP3K11 (human) = MAP3K11 (human) (UniProt Q16584)
MAPK1 (human) = MAPK1 (human) (UniProt P28482)
MAPK10 (human) = MAPK10 (human) (UniProt P53779)
MAPK12 (human) = MAPK12 (human) (UniProt P53778)
MAPK13 (human) = MAPK13 (human) (UniProt O15264)
MAPK3 (human) = MAPK3 (human) (UniProt P27361)
MAPK8 (human) = MAPK8 (human) (UniProt P45983)
MAPKAPK3 (human) = MAPKAPK3 (human) (UniProt Q16644)
MARK2 (human) = MARK2 (human) (UniProt Q7KZI7)
MKNK1 (human) = MKNK1 (human) (UniProt Q9BUB5)
MST4 (human) = MST4 (human) (UniProt Q9P289)
NEK2 (human) = NEK2 (human) (UniProt P51955)
NUAK1 (human) = NUAK1 (human) (UniProt O60285)
PAK4 (human) = PAK4 (human) (UniProt O96013)
PAK7 (human) = PAK7 (human) (UniProt Q9P286)
PLK1 (human) = PLK1 (human) (UniProt P53350)
PRKAA1 or PRKAA2 (rat) = details: accession and sequence are those of the human protein
PRKACA (human) = PRKACA (human) (UniProt P17612); details: compound 1.0 µM
PRKCA (human) = PRKCA (human) (UniProt P17252)
RPS6KA1 KD1 KD2 (human) = RPS6KA1 KD1 KD2 (human) (UniProt Q15418)
[2] = tested on: SGK1 (human), O00141 [S422D]
SYK (human) = SYK (human) (UniProt P43405)

Chain of MAPK12 (human) (P53778 whole entry, looked up): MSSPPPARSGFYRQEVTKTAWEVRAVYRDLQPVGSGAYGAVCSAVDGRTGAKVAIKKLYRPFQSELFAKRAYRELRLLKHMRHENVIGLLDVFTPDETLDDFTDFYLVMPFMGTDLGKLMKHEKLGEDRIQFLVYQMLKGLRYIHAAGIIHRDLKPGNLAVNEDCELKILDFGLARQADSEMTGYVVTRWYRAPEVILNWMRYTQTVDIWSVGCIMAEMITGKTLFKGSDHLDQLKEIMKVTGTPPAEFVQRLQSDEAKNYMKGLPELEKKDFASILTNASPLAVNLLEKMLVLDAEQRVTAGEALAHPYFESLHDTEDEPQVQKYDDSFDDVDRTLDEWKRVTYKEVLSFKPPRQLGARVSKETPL
Chain of HIPK2 (human) (Q9H2X6 whole entry, looked up): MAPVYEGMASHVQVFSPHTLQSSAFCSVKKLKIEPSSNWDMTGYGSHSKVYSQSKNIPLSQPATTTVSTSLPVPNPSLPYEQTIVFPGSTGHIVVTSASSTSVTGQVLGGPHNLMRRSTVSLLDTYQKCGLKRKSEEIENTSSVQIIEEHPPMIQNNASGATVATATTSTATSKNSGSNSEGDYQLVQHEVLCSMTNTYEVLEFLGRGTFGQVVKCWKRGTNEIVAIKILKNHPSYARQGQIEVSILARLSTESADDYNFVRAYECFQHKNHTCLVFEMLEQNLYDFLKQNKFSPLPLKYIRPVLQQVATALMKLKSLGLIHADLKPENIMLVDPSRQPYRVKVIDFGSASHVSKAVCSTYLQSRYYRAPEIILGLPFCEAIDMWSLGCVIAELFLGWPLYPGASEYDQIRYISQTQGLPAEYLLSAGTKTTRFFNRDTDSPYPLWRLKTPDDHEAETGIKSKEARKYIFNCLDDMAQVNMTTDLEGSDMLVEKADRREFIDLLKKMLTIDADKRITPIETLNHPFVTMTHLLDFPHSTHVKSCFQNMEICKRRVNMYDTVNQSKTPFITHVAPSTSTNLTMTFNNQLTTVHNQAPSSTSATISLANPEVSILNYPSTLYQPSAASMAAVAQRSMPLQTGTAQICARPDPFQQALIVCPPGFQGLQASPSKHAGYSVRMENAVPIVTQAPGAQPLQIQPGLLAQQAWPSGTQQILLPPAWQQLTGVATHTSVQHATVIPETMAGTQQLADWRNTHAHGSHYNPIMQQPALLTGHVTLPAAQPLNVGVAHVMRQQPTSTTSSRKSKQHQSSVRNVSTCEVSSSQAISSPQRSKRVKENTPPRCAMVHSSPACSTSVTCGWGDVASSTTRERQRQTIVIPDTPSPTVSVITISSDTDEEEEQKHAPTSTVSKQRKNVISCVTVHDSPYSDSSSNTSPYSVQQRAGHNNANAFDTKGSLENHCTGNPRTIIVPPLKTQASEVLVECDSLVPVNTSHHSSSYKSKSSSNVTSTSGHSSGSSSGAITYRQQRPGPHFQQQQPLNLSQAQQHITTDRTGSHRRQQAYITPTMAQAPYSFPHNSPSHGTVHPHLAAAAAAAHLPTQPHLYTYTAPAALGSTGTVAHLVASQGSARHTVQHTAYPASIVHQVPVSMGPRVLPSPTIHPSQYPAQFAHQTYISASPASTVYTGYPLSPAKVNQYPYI
Chain of MKNK1 (human) (Q9BUB5 whole entry, looked up): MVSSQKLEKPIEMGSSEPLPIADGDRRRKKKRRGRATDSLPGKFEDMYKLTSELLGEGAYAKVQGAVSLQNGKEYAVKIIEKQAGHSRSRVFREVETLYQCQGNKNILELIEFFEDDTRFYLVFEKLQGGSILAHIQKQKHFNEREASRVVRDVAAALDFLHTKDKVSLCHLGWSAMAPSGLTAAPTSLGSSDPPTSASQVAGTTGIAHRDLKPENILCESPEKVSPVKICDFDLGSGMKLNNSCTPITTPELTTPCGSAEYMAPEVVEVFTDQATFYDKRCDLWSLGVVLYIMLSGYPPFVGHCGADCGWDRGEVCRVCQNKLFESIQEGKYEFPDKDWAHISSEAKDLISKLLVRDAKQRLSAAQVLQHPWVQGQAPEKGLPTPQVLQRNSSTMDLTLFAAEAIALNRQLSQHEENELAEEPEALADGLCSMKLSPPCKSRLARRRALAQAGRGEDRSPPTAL
Chain of MARK2 (human) (Q7KZI7 whole entry, looked up): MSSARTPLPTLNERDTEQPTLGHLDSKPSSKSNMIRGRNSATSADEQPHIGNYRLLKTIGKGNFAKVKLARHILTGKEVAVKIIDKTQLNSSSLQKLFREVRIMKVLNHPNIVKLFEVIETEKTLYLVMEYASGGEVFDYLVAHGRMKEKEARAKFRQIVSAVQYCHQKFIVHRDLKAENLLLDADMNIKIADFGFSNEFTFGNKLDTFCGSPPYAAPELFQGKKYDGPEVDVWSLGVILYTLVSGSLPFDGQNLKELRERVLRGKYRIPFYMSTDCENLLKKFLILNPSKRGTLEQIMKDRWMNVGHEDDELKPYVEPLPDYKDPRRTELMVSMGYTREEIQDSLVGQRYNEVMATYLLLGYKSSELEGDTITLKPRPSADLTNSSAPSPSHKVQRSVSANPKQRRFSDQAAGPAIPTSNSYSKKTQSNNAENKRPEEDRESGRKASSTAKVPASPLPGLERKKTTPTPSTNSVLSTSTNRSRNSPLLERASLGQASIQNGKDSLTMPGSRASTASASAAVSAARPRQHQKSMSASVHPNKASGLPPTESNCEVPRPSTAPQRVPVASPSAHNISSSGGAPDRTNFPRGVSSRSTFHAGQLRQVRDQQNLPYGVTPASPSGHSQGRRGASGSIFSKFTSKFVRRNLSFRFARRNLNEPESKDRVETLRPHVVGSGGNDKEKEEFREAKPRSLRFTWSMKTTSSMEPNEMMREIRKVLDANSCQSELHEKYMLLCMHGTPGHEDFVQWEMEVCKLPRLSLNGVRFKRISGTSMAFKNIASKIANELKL
Chain of SGK1 (human), O00141 [S422D] (O00141 whole entry S422D, looked up): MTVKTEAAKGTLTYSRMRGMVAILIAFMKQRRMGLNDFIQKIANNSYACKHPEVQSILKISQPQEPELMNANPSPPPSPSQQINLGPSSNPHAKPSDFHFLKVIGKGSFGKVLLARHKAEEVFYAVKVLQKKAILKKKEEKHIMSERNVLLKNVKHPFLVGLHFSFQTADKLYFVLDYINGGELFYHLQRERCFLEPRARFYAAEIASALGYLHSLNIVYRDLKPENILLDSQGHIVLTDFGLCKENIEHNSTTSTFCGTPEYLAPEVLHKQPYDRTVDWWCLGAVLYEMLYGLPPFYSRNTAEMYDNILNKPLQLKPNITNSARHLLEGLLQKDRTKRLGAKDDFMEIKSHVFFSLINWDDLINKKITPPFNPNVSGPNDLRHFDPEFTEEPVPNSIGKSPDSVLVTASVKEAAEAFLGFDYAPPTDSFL
Chain of MAPK3 (human) (P27361 whole entry, looked up): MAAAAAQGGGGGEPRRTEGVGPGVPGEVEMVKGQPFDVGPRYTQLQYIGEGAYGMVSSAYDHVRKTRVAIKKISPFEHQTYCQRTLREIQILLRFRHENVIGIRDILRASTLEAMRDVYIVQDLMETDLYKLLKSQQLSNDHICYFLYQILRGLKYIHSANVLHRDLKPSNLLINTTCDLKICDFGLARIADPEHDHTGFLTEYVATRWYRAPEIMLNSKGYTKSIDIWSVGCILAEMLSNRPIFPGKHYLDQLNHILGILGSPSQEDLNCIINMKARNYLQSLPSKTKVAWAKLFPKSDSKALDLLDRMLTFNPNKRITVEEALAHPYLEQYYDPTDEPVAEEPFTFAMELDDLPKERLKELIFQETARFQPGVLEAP
Chain of NUAK1 (human) (O60285 whole entry, looked up): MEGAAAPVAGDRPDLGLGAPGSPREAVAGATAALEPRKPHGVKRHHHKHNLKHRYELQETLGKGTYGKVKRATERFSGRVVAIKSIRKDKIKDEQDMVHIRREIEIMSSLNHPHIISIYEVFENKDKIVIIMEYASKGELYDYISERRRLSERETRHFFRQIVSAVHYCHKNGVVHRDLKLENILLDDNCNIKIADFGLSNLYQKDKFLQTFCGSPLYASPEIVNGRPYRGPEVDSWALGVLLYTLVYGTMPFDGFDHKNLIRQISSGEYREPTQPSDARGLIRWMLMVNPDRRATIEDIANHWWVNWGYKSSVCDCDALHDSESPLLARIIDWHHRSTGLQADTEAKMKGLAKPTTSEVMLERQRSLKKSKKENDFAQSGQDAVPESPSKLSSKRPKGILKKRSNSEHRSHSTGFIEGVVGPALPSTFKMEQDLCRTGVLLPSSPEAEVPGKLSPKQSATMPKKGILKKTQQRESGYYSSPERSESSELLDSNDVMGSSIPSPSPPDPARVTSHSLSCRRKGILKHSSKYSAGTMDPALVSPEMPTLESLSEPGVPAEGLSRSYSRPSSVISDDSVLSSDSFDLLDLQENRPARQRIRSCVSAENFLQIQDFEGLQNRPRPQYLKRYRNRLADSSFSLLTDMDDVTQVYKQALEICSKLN

CCNc1nc(Nc2cc(F)c(C(=O)N3CCOCC3)cc2OC)ncc1C(F)(F)F
residual activity ([1]; compound 1.0 µM): 102%
residual activity ([1]; compound 10.0 µM): 87%
residual activity (AURKA (human); compound 1.0 µM): 97%
residual activity (AURKA (human); compound 10.0 µM): 55%
residual activity (BRSK2 (human); compound 1.0 µM): 80%
residual activity (BRSK2 (human); compound 10.0 µM): 38%
residual activity (CHEK2 (human); compound 1.0 µM): 12%
residual activity (CHEK2 (human); compound 10.0 µM): 2%
residual activity (CaMK1 (human); compound 1.0 µM): 74%
residual activity (CaMK1 (human); compound 10.0 µM): 27%
residual activity (DYRK1A (human); compound 1.0 µM): 85%
residual activity (DYRK1A (human); compound 10.0 µM): 48%
residual activity (DYRK2 (human); compound 1.0 µM): 50%
residual activity (DYRK2 (human); compound 10.0 µM): 17%
residual activity (EPHB2 (human); compound 1.0 µM): 110%
residual activity (EPHB2 (human); compound 10.0 µM): 100%
residual activity (EPHB3 (human)): 83%
residual activity (ERBB4 (human); compound 1.0 µM): 97%
residual activity (ERBB4 (human); compound 10.0 µM): 70%
residual activity (HIPK2 (human); compound 1.0 µM): 88%
residual activity (HIPK2 (human); compound 10.0 µM): 65%
residual activity (IKBKE (human); compound 1.0 µM): 78%
residual activity (IKBKE (human); compound 10.0 µM): 23%
residual activity (MAP2K6 (human); compound 1.0 µM): 72%
residual activity (MAP2K6 (human); compound 10.0 µM): 31%
residual activity (MAP3K11 (human); compound 1.0 µM): 23%
residual activity (MAP3K11 (human); compound 10.0 µM): 5%
residual activity (MAPK1 (human); compound 1.0 µM): 99%
residual activity (MAPK1 (human); compound 10.0 µM): 71%
residual activity (MAPK10 (human); compound 1.0 µM): 84%
residual activity (MAPK10 (human); compound 10.0 µM): 50%
residual activity (MAPK12 (human); compound 1.0 µM): 99%
residual activity (MAPK12 (human); compound 10.0 µM): 102%
residual activity (MAPK13 (human); compound 1.0 µM): 102%
residual activity (MAPK13 (human); compound 10.0 µM): 98%
residual activity (MAPK3 (human); compound 1.0 µM): 85%
residual activity (MAPK3 (human); compound 10.0 µM): 54%
residual activity (MAPK8 (human); compound 1.0 µM): 87%
residual activity (MAPK8 (human); compound 10.0 µM): 50%
residual activity (MAPKAPK3 (human); compound 1.0 µM): 91%
residual activity (MAPKAPK3 (human); compound 10.0 µM): 108%
residual activity (MARK2 (human); compound 1.0 µM): 98%
residual activity (MARK2 (human); compound 10.0 µM): 73%
residual activity (MKNK1 (human); compound 1.0 µM): 92%
residual activity (MKNK1 (human); compound 10.0 µM): 45%
residual activity (MST4 (human); compound 1.0 µM): 86%
residual activity (MST4 (human); compound 10.0 µM): 74%
residual activity (NEK2 (human); compound 1.0 µM): 99%
residual activity (NEK2 (human); compound 10.0 µM): 92%
residual activity (NUAK1 (human); compound 1.0 µM): 13%
residual activity (NUAK1 (human); compound 10.0 µM): 2%
residual activity (PAK4 (human); compound 1.0 µM): 92%
residual activity (PAK4 (human); compound 10.0 µM): 32%
residual activity (PAK7 (human); compound 1.0 µM): 95%
residual activity (PAK7 (human); compound 10.0 µM): 56%
residual activity (PLK1 (human); compound 1.0 µM): 76%
residual activity (PLK1 (human); compound 10.0 µM): 39%
residual activity (PRKAA1 or PRKAA2 (rat); compound 1.0 µM): 75%
residual activity (PRKAA1 or PRKAA2 (rat); compound 10.0 µM): 56%
residual activity (PRKACA (human)): 96%
residual activity (PRKCA (human); compound 1.0 µM): 95%
residual activity (PRKCA (human); compound 10.0 µM): 97%
residual activity (RPS6KA1 KD1 KD2 (human); compound 1.0 µM): 21%
residual activity (RPS6KA1 KD1 KD2 (human); compound 10.0 µM): 8%
residual activity ([2]; compound 1.0 µM): 72%
residual activity ([2]; compound 10.0 µM): 59%
residual activity (SYK (human); compound 1.0 µM): 70%
residual activity (SYK (human); compound 10.0 µM): 33%
